ChEMBL document CHEMBL4342454, “Unraveling Structures Containing Highly Conjugated Pyrrolo[4,3,2-de]quinoline Cores That Are Deficient in Diagnostic Proton NMR Signals” (J Nat Prod, 2020)
Calls of active or inactive are those of the source.

Columns and labels:
[1] = organism: Homo sapiens; experiment: Cytotoxicity against human D283 cells after 48 hrs by sulforhodamine B assay; format: functional, cell-based
[2] = system: Yersinia pseudotuberculosis; experiment: Inhibition of Yersinia pseudotuberculosis Type 3 secretion system protein by SDS-PAGE analysis
[3] = organism: Homo sapiens; experiment: Cytotoxicity against human SJCRH30 cells after 48 hrs by sulforhodamine B assay; format: functional, cell-based
[4] = system: A673; experiment: Cytotoxicity against human A673 cells after 48 hrs by sulforhodamine B assay; format: functional, cell-based
[5] = system: Hep293TT; experiment: Cytotoxicity against human Hep293TT cells after 48 hrs by sulforhodamine B assay; format: functional, cell-based

CN1CCc2c[nH]c3c2c1cc1[o+]c2cc4c5c(c[nH]c5c2nc13)CCN4C
inactive: Activity [1] | inhibition [2] | Activity [3] | Activity [4] | Activity [5]

Cc1nc2c(cc1-c1ccc(O)cc1)cc1c3c(c[nH]c32)CCN1C
inactive: Activity [1] | inhibition [2] | Activity [3] | Activity [4] | Activity [5]
